# Tests used:
# [1] = test system: normal cells prepared from the fundus of rat stomach; assay: Electrical signal of cells on the cell diagnosis device on applying Carbachol, normal cells; format: cell-based
# Procedure: (§1) A cell diagnosis apparatus comprising the device shown in FIG. 3 as a measuring section (signal source) 101, which has a configuration shown in FIG. 4, was used. Normal cells and cancer cells were prepared as samples from the fundus of rat stomach. The apparatus was used to measure the action of a chemical substance, Carbachol, on these samples.
# Carbachol is a chemical substance known as an analog of the neurotransmitter Acetylcholine. Carbachol (manufactured by Sigma) was dissolved in Krebs Ringer solution to concentrations of 0, 0.1, 0.3, 1, 3 10, 30 and 100 μM. The solutions having these concentrations were used to measure an electrical signal when each solution was applied to the normal cells and the cancer cells derived from the fundus of stomach. For each Carbachol concentration, time-series signal values for 10 seconds were obtained from the measuring section (signal source) 101 comprising the cell diagnosis device shown in FIG. 3, and was sampled at intervals of 100 msec to obtain time-series data, and the standard deviation of the sampling data was calculated. […]
# (§2) Before and after 50 μM-concentration Carbachol was applied to the normal cells and the cancer cells prepared from the fundus of rat stomach, signals were obtained from the measuring section (signal source) 101, and the standard deviation of the signals was calculated in a manner similar to that of Example 1.
# [2] = test system: cancer cells prepared from the fundus of rat stomach; assay: Electrical signal of cells on the cell diagnosis device on applying Carbachol, cancer cells; format: cell-based
# Procedure: as §1
# Carbachol is a chemical substance known as an analog of the neurotransmitter Acetylcholine. Carbachol (manufactured by Sigma) was dissolved in Krebs Ringer solution to concentrations of 0, 0.1, 0.3, 1, 3 10, 30 and 100 μM. The solutions having these concentrations were used to measure an electrical signal when each solution was applied to the normal cells and the cancer cells derived from the fundus of stomach. For each Carbachol concentration, time-series signal values for 10 seconds were obtained from the measuring section (signal source) 101 comprising the cell diagnosis device shown in FIG. 3, and was sampled at intervals of 100 msec to obtain time-series data, and the standard deviation of the sampling data was calculated. The average of the standard deviation was plotted in FIG. 8. In FIG. 8, black circles indicate results obtained from cells including cancer cells and white circles indicate results obtain from normal cells.
# The apparatus having the configuration shown in FIG. 5, which comprises the device shown in FIG. 3 as a measuring section (signal source), was used to measure the action of Carbachol on samples, where the samples were normal cells and cells including cancer cells prepared from the fundus of rat stomach, as in Example 1.
# as §2
# [3] = 50 μM Carbachol, before versus after application, 10 seconds, FIG. 9
# [4] = Carbachol 0, 0.1, 0.3, 1, 3, 10, 30 and 100 μM in Krebs Ringer solution, 10 seconds signal, FIG. 8
structure (smiles),measurement,setting,value
C[N+](C)(C)CCOC(N)=O [Carbachol],average of the standard deviation every 5 msec after applying Carbachol,[1]; [3],increased
same,average of the standard deviation of the electrical signal at 100 msec intervals,[1]; [4],"the higher the Carbachol concentration, the higher the average of the standard deviation"
same,average and half-width of the normal distribution of standard deviations compared with the normal cell,"[2]; 50 μM Carbachol, FIG. 9",larger average and half-width values than those of the normal cell
same,average of the standard deviation every 5 msec after applying Carbachol,[2]; [3],increased
same,average of the standard deviation of the electrical signal at 100 msec intervals,[2]; [4],"the higher the Carbachol concentration, the higher the average of the standard deviation"

# Source: US20040033483A1, “Cell diagnosing method, and device and apparatus use for it” (priority 2001, published 2004)
